Assay results published in patent US20220096475A1, “METHOD FOR TREATING SARCOIDOSIS-ASSOCIATED PULMONARY HYPERTENSION” (ALTAVANT SCIENCES GmbH, priority 2018, published 2022).

How the values were obtained:
[1] = stability and shelf life of crystalline polymorphs; assay type: physicochemical; settings: particularly at temperatures of less than 95° C.
TPH1 = target: T1, TPH1 (Mus musculus, UniProt P17532); settings: amorphous form; cited from earlier work
T1 construct: from tissue; host or cells: mice (in vivo)
T1 sequence (P17532 1-447): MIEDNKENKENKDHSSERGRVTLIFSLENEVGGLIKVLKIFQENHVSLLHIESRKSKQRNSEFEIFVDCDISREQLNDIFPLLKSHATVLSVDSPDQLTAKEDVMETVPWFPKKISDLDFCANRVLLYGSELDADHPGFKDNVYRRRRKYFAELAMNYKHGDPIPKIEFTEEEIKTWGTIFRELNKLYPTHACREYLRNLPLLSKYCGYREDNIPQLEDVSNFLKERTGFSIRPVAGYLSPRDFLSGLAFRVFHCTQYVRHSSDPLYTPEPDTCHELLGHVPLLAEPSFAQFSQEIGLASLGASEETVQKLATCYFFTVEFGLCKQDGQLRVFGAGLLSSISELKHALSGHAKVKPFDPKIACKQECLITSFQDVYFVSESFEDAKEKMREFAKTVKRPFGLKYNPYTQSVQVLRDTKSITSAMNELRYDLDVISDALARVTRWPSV

Row | SMILES | stability and shelf life compared to the crystalline Form 1 polymorph [1] | efficacy in inhibiting TPH1 in mice (TPH1)
1 | CCOC(=O)[C@@H]1CC2(CCN(c3cc(O[C@H](c4ccc(Cl)cc4-c4ccccc4)C(F)(F)F)nc(N)n3)CC2)CN1 [crystalline Form 3 polymorph, (S)-ethyl 8-(2-amino-6-((R)-1-(5-chloro-[1,1′-biphenyl]-2-yl)-2,2,2-trifluoroethoxy)pyrimidin-4-yl)-2,8-diazaspiro[4.5]decane-3-carboxylate] | substantially greater stability and shelf life | 
2 | CCOC(=O)[C@@H]1CC2(CCN(c3cc(O[C@H](c4ccc(Cl)cc4-c4ccccc4)C(F)(F)F)nc(N)n3)CC2)CN1 [Compound A, (S)-ethyl 8-(2-amino-6-((R)-1-(5-chloro-[1,1′-biphenyl]-2-yl)-2,2,2-trifluoroethoxy)pyrimidin-4-yl)-2,8-diazaspiro[4.5]decane-3-carboxylate] |  | demonstrated
